“Also recorded” adds a separate entry of the source.
Key:
[1] = system: sensitive neurons extracted from rat embryo dorsal spinal ganglions; test: density of neuritic networks (total neurite length, anti-β-tubulin labelling) in sensitive neuron co-culture with or without cisplatin; format: cell-based; conditions: 24 hours, FIG. 1
Experimental: (§1) To be more precise, they studied the survival of sensitive neurons extracted from rat embryo dorsal spinal ganglions cultured in the presence of a cytotoxic agent, cisplatin, co-applied with stiripentol.
(§2) The co-culturing, for 5 days, of sensitive neurons (˜5-10% of the cultivated cell population) associated with Schwann cells and fibroblasts (˜95-90% of the cultivated cell population) is carried out in an appropriate medium as described in Hall et al. (1997) J. Neurosci. 17:2775-2784. […]
(§3) The density of the neuritic networks (axons and dendrites) labelled by an anti-β-tubulin antibody (ref T8660, Sigma, France) is then determined by measuring their length, together with the number of cell bodies marked by means of an anti-MAP2 antibody (ref M4403, Sigma, France) as indicated by Gill & Windebank (1998) J. Clin. Invest. […] Also determined is the amount of lactate dehydrogenase (LDH) (Kit de detection (detection kit), ref 1 644 793, Roche) released in the extracellular medium, the amount of which is proportional to the number of cells which are damaged or dead owing to the cisplatin-induced cell lysis, as indicated by Koh & Choi (1987) J Neurosci Methods 20:83-90.

[2] = system: sensitive neurons extracted from rat embryo dorsal spinal ganglions; test: number of cell bodies (anti-MAP2 labelling) in sensitive neuron co-culture with or without cisplatin; format: cell-based; conditions: 24 hours, FIG. 2
Experimental: as §1, §2, §3

[3] = system: sensitive neurons extracted from rat embryo dorsal spinal ganglions; test: lactate dehydrogenase (LDH) released in the extracellular medium of the co-culture with or without cisplatin; format: cell-based; conditions: 24 hours, FIG. 3
Experimental: as §1, §2, §3

[4] = system: sensitive neurons extracted from rat embryo dorsal spinal ganglions; test: in vitro model of peripheral neuropathy (cisplatin), overall neuroprotective activity; format: cell-based; conditions: stiripentol 1-10 μM versus NGF 5 ng/ml; cisplatin 4.5 μg/ml, 24 hours
Experimental: as §1, §2, §3

[5] = system: uptake of gamma-aminobutyric acid (GABA); conditions: cited from earlier work
[6] = molecular target: CYP1A2 (Homo sapiens, UniProt P05177); conditions: Tran et al. (1997); cited from earlier work
[7] = molecular target: CYP3A4 (Homo sapiens, UniProt P08684); conditions: Tran et al. (1997); cited from earlier work
[8] = in the presence of cisplatin 4.5 μg/ml, stiripentol 1, 3, 10 μM, NGF 5 ng/ml

Chain of CYP3A4 (P08684 whole entry): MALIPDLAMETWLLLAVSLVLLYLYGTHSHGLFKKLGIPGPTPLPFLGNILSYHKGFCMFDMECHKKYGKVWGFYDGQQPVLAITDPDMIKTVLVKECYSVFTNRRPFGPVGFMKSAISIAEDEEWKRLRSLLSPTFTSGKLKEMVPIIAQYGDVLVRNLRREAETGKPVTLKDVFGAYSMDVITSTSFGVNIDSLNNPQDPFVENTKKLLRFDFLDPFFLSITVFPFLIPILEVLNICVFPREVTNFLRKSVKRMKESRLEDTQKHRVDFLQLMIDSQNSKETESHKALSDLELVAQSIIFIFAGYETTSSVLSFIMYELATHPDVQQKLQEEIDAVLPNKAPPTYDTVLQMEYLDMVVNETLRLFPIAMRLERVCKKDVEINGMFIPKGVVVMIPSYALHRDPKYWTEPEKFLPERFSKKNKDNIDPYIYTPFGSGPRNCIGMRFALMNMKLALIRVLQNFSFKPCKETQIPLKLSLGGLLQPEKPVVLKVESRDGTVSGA
Chain of CYP1A2 (P05177 whole entry): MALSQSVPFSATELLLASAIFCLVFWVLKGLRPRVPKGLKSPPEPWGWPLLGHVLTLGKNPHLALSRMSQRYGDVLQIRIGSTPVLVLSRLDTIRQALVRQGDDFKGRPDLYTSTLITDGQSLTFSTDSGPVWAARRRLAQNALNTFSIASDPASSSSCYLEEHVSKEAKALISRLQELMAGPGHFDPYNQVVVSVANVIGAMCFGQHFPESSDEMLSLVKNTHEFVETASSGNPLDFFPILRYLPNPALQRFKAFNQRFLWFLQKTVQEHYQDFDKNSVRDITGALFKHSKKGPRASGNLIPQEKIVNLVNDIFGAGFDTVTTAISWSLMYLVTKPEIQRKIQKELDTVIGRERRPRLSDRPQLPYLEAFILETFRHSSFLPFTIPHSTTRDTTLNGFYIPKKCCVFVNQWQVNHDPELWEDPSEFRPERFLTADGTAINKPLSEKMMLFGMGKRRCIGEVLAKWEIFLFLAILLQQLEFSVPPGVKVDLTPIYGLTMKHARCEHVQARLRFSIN

SMILES	effect of cisplatin on the density of the neuritic networks ([1]; cisplatin 4.5 μg/ml alone)	effect of cisplatin on the cell bodies ([2]; cisplatin 4.5 μg/ml alone)	effect of cisplatin on cell lysis (LDH release) ([3]; cisplatin 4.5 μg/ml alone)	density of the neuritic networks (total length of the neurites) [1, 8]	number of neuronal cell bodies [2, 8]	cell release of LDH [3, 8]	neuroprotective activity compared with NGF [4]	inhibition of the uptake of gamma-aminobutyric acid (GABA) [5]	inhibition of CYP1A2 [6]	inhibition of CYP3A4 [7]
N.N.[Cl][Pt][Cl] [cisplatin]	reduction in the density of the neuritic networks	degeneration of the cell bodies	cell lysis	–	–	–	–	–	–	–
CC(C)(C)C(O)/C=C/c1ccc2c(c1)OCO2 (stereo not shown) [stiripentol, 4,4-dimethyl-1-[(3,4-methylenedioxy)-phenyl]-1-penten-3-ol]	–	–	–	reduce the decrease in the density of the neuritic networks	reduce the decrease	neuroprotective effect	neuroprotective effect equivalent to that of NGF; also recorded: neuroprotective activity of the same order as that of NGF	inhibits the uptake of gamma-aminobutyric acid (GABA)	inhibitor	inhibitor
